Consider 5 molecules from patent US7101853B2 (Amylin Pharmaceuticals, Inc., priority 1997, dated 2006).

A word on the IC50: it is the midpoint of a concentration-inhibition curve.

Read-outs that look alike come from different tables or passages of the source. Where no end group is shown, it is not given here.

For one data set, the system named is treated test animals. The data set is described as follows: Amylin activity in vivo in treated test animals.
Data set [1] has as its system ethanol- or indomethacin-induced gastritis in rats. The settings on record: cited from earlier work.
The conditions of data set [2]: in rats, in rabbits, and in humans with Paget's disease; cited from earlier work.
In a further data set the test system is ethanol gavaged rat. The data set is described as follows: Gastroprotection: ethanol-induced mucosal damage in the ethanol gavaged rat. Type of data set: in vivo. The text has this: The gastroprotective properties of amylin in an animal model for gastritis—the ethanol gavaged rat—are described in this example.
Mucosal damage was scored between 0 (no damage) and 5 (100% of stomach covered by hyperemia and ulceration) by investigators blinded to the treatment. […] This prediction was obtained by applying the published relationship between injected subcutaneous dose and peak plasma concentration in rats. Young, A. A. et al., Drug Devel. Res. 37:231-48 (1996). […] Mimicking this physiological effect is unlikely to result in unwanted side effects, as is often the case with administration of unphysiological xenobiotics.

Data set [3] has as its system Harlan Sprague Dawley (non-diabetic) rats. The data set is described as follows: Phenol red gastric emptying assay, normal rats. Type of data set: in vivo, rat. The settings on record: 1 μg s.c. 5 minutes before gavage, normal HSD rats. From the text: (§1) Briefly, conscious rats received by gavage. […] Twenty minutes after gavage, rats were anesthetized using 5% halothane, the stomach exposed and clamped at the pyloric and lower esophageal sphincters using artery forceps, removed and opened into an alkaline solution which was made up to a fixed volume. Stomach content was derived from the intensity of the phenol red in the alkaline solution, measured by absorbance at a wavelength of 560 nm. In most experiments, the stomach was clear. In other experiments, particulate gastric contents were centrifuged to clear the solution for absorbance measurements. Where the diluted gastric contents remained turbid, the spectroscopic absorbance due to phenol red was derived as the difference between that present in alkaline vs acetified diluent. […] The quantity of phenol red that could be recovered from the upper gastrointestinal tact within […] of gavage was 89±4%; dye which appeared to bind irrecoverably to the gut luminal surface may have accounted for the balance. To compensate for this small loss, percent of stomach contents remaining after 20 minutes were expressed as a fraction of the gastric contents recovered from control rats sacrificed immediately after gavage in the same experiment. Percent gastric emptying contents remaining=(absorbance at 20 min)/(absorbance at 0 min). […]

Another data set relates to diabetic BB rats. The data set is described as follows: Phenol red gastric emptying assay, diabetic rats. Conditions: 10 μg s.c. 5 minutes before gavage. The data set is classed as in vivo, rat.
Excerpt: as §1

For data set [4], the system named is Harlan Sprague Dawley rats. As to the kind of experiment: Tritiated glucose gastric emptying assay. The data set is classed as in vivo, rat. The protocol: Conscious, non-fasted, Harlan Sprague Dawley rats were restrained by the tail, the tip of which was anesthetized using 2% lidocaine. Tritium in plasma separated from tail blood collected 0, 15, 30, 60, 90 and 120 minutes after gavage was detected in a beta counter.

Data set [5] has as its target amylin receptor (membrane-bound, rat basal forebrain membranes containing the nucleus accumbens and surrounding regions) (rat). The data set is described as follows: competition with 125I-rat amylin on rat basal forebrain membranes.

As to “des-^1Lys-h-amylin (CNTATCATQRLANFLVHSSNNFGAILSSTNVGSNTY)”, the “Amylin activity in vivo” value with treated test animals was “show amylin activity in vivo”.
“amylin (KCNTATCATQRLANFLVHSSNNFGAILSSTNVGSNTY; not fully specified (C-terminus, bridges); cysteine pairing not given here; UniProt P10997 34-70, looked up) [amylin as named in the cited literature, species form not specified at the place]”: the “Effect on ethanol- or indomethacin-induced gastritis” value in data set [1] (intracerebroventricular injections) is recorded as “did have an effect”; in data set [1] (subcutaneous injections) it was “no effect”. Also, in data set [2], the “Lowering of plasma calcium” value was “up to 20%”.
Consider rat amylin, for which the “Mucosal damage, percent of scores in the saline-treated controls” value in the data set with ethanol gavaged rat (0.001 μg s.c. 5 min before gavage of 1 ml absolute ethanol) is listed as 95.3±15.2%; with ethanol gavaged rat (0.01 μg s.c. 5 min before gavage of 1 ml absolute ethanol), 76.6±13.8%; with ethanol gavaged rat (0.1 μg s.c. 5 min before gavage of 1 ml absolute ethanol), 70.1±10.7%; in the data set on ethanol gavaged rat (0.3 μg s.c. 5 min before gavage of 1 ml absolute ethanol), 33.9±7.7%; in the data set on ethanol gavaged rat (1 μg s.c. 5 min before gavage of 1 ml absolute ethanol), 59.6±5.8%; in the data set on ethanol gavaged rat (3 μg s.c. 5 min before gavage of 1 ml absolute ethanol), 35.6±11.5%. Moreover, the “Mucosal damage, percent of scores in the saline-treated controls” value with ethanol gavaged rat (10 μg s.c. 5 min before gavage of 1 ml absolute ethanol) amounted to 32.9±8.3%. Also, in the data set on ethanol gavaged rat ([…] s.c., from published relationship between s.c. dose and peak plasma concentration in rats), the “Predicted increase in circulating amylin concentrations at the 50% gastroprotective dose” value was 1.8 ± 0.4 pM. Further, the “Reduction of the injury score” value in the data set on ethanol gavaged rat (as observed with the 10 μg dose) is recorded as “up to 67%”. The “ED50 for the gastroprotective effect” value in the data set on ethanol gavaged rat (s.c., ±0.4 log units) is 0.036 μg/rat. Moreover, the “Suppression of gastric emptying” value (in data set [3]; with diabetic BB rats) was “complete” throughout. In addition, the “Effect on absorption of the label (plasma tritium)” value in data set [4] (s.c. 0.1-100 μg 1 minute before gavage) was “dose-dependently slowed and/or delayed the absorption of the label”. Also, in data set [4] (s.c. 1 minute before gavage of tritiated glucose), the “ED50 derived from the logistic fit (plasma tritium AUC over 30 minutes vs dose)” value was 0.35 μg.
With `CC[C@H](C)[C@H](NC(=O)[C@@H]1CCCN1C(=O)CNC(=O)[C@H](Cc1ccccc1)NC(=O)[C@H](CC(N)=O)NC(=O)[C@H](CC(N)=O)NC(=O)[C@H](CO)NC(=O)[C@H](CO)NC(=O)[C@H](Cc1c[nH]cn1)NC(=O)[C@@H](NC(=O)[C@H](CC(C)C)NC(=O)[C@H](Cc1ccccc1)NC(=O)[C@H](CC(N)=O)NC(=O)[C@H](C)NC(=O)[C@H](CC(C)C)NC(=O)[C@H](CCCNC(=N)N)NC(=O)[C@H](CCC(N)=O)NC(=O)[C@@H](NC(=O)[C@H](C)NC(=O)[C@@H]1CSSC[C@H](NC(=O)[C@@H](N)CCCCN)C(=O)N[C@@H](CC(N)=O)C(=O)N[C@@H]([C@@H](C)O)C(=O)N[C@@H](C)C(=O)N[C@@H]([C@@H](C)O)C(=O)N1)[C@@H](C)O)C(C)C)C(=O)N[C@@H](CC(C)C)C(=O)N1CCC[C@H]1C(=O)N1CCC[C@H]1C(=O)N[C@H](C(=O)N[C@@H](CC(N)=O)C(=O)N[C@H](C(=O)NCC(=O)N[C@@H](CO)C(=O)N[C@@H](CC(N)=O)C(=O)N[C@H](C(=O)N[C@@H](Cc1ccc(O)cc1)C(N)=O)[C@@H](C)O)C(C)C)[C@@H](C)O` [^25,28,29Pro-h-Amylin], the “Amylin activity in vivo” value in the data set with treated test animals is “show amylin activity in vivo”.
In the case of “purified human amylin (from UniProt P10997 34-70) (peptide)”, the IC50 in data set [5] is 50 pM. This lies in the picomolar range.
